The values that follow come from ChEMBL document CHEMBL4819100, “Antibacterial and synergistic activity of 6β-hydroxy-3-oxolup-20(29)-en-28-oic acid (6β-hydroxy betunolic acid) isolated from Schumacheria castaneifolia vahl” (2021).

What all share (format): functional
In experiment [1] the test system is Escherichia coli. Put plainly: Antibacterial activity against Escherichia coli ATCC 25922 assessed as reduction in bacterial growth incubated for 24 hrs by CLSI based serial dilution method.
The subject of experiment [2] is Klebsiella pneumoniae. Put plainly: Antibacterial activity against Klebsiella pneumoniae ATCC BAA-1706 assessed as reduction in bacterial growth incubated for 24 hrs by CLSI based serial dilution method.
Experiment [3] concerns Escherichia coli. Put plainly: Antibacterial activity against Escherichia coli ATCC 35218 assessed as reduction in bacterial growth incubated for 24 hrs by CLSI based serial dilution method.
Experiment [4] relates to Acinetobacter. Put plainly: Antibacterial activity against Acinetobacter sp. 103 assessed as reduction in bacterial growth incubated for 24 hrs by CLSI based serial dilution method.
Experiment [5] concerns Staphylococcus aureus. Briefly: Antibacterial activity against methicillin-resistant Staphylococcus aureus 59 assessed as reduction in bacterial growth incubated for 24 hrs by CLSI based serial dilution method.
Experiment [6] deals with Staphylococcus aureus. Briefly: Antibacterial activity against methicillin-resistant Staphylococcus aureus 124 assessed as reduction in bacterial growth incubated for 24 hrs by CLSI based serial dilution method.
Experiment [7] deals with Staphylococcus aureus. Briefly: Antibacterial activity against methicillin-resistant Staphylococcus aureus 114 assessed as fractional inhibitory concentration index incubated for 24 hrs in presence of oxacillin by CLSI based serial dilution method.
Experiment [8] relates to Acinetobacter. Briefly: Antibacterial activity against Acinetobacter sp. 122 assessed as reduction in bacterial growth incubated for 24 hrs by CLSI based serial dilution method.
Experiment [9] has as its system Acinetobacter. Put plainly: Antibacterial activity against Acinetobacter sp. 126 assessed as reduction in bacterial growth incubated for 24 hrs by CLSI based serial dilution method.
Experiment [10] relates to Staphylococcus aureus. Put plainly: Antibacterial activity against methicillin-resistant Staphylococcus aureus 59 assessed as fractional inhibitory concentration index incubated for 24 hrs in presence of oxacillin by CLSI based serial dilution method.
In experiment [11] the test system is Staphylococcus aureus. Briefly: Antibacterial activity against Staphylococcus aureus ATCC 29213 assessed as reduction in bacterial growth incubated for 24 hrs by CLSI based serial dilution method.
The subject of experiment [12] is Staphylococcus aureus. Briefly: Antibacterial activity against methicillin-resistant Staphylococcus aureus 58 assessed as fractional inhibitory concentration index incubated for 24 hrs in presence of oxacillin by CLSI based serial dilution method.
Experiment [13] deals with Staphylococcus aureus. Put plainly: Antibacterial activity against methicillin-resistant Staphylococcus aureus 114 assessed as fractional inhibitory concentration incubated for 24 hrs in presence of oxacillin by CLSI based serial dilution method.
For experiment [14], the system named is Klebsiella pneumoniae. Put plainly: Antibacterial activity against Klebsiella pneumoniae ATCC BAA-1705 assessed as reduction in bacterial growth incubated for 24 hrs by CLSI based serial dilution method.
The test system of experiment [15] is Staphylococcus aureus. Briefly: Antibacterial activity against methicillin-resistant Staphylococcus aureus 58 assessed as fractional inhibitory concentration incubated for 24 hrs in presence of oxacillin by CLSI based serial dilution method.
For experiment [16], the system named is Staphylococcus aureus. Briefly: Antibacterial activity against methicillin-resistant Staphylococcus aureus 58 assessed as reduction in bacterial growth incubated for 24 hrs in presence of oxacillin by CLSI based serial dilution method.
The test system of experiment [17] is Staphylococcus aureus. Put plainly: Antibacterial activity against Staphylococcus aureus assessed as reduction in bacterial growth incubated for 24 hrs in presence of oxacillin by CLSI based serial dilution method.
Experiment [18] concerns Staphylococcus aureus. Put plainly: Antibacterial activity against methicillin-resistant Staphylococcus aureus 59 assessed as reduction in bacterial growth incubated for 24 hrs in presence of oxacillin by CLSI based serial dilution method.
Experiment [19] deals with Staphylococcus aureus. Briefly: Antibacterial activity against methicillin-resistant Staphylococcus aureus 58 assessed as reduction in bacterial growth incubated for 24 hrs by CLSI based serial dilution method.
For experiment [20], the system named is Acinetobacter. Briefly: Antibacterial activity against Acinetobacter sp. 121 assessed as reduction in bacterial growth incubated for 24 hrs by CLSI based serial dilution method.
The test system of another experiment is Pseudomonas aeruginosa. Put plainly: Antibacterial activity against Pseudomonas aeruginosa ATCC 27853 assessed as reduction in bacterial growth incubated for 24 hrs by CLSI based serial dilution method.
In experiment [21] the test system is Staphylococcus aureus. Put plainly: Antibacterial activity against methicillin-resistant Staphylococcus aureus 124 assessed as fractional inhibitory concentration incubated for 24 hrs in presence of oxacillin by CLSI based serial dilution method.
The test system of a further experiment is Enterococcus faecalis. Briefly: Antibacterial activity against Enterococcus faecalis ATCC 29212 assessed as reduction in bacterial growth incubated for 24 hrs by CLSI based serial dilution method.
The subject of experiment [22] is Staphylococcus aureus. Put plainly: Antibacterial activity against methicillin-resistant Staphylococcus aureus 124 assessed as fractional inhibitory concentration index incubated for 24 hrs in presence of oxacillin by CLSI based serial dilution method.
Experiment [23] relates to Staphylococcus aureus. Put plainly: Antibacterial activity against methicillin-resistant Staphylococcus aureus 59 assessed as fractional inhibitory concentration incubated for 24 hrs in presence of oxacillin by CLSI based serial dilution method.
Experiment [24] deals with Staphylococcus aureus. Briefly: Antibacterial activity against Staphylococcus aureus assessed as fractional inhibitory concentration index incubated for 24 hrs in presence of oxacillin by CLSI based serial dilution method.
Experiment [25] has as its system Staphylococcus aureus. Briefly: Antibacterial activity against Staphylococcus aureus assessed as fractional inhibitory concentration incubated for 24 hrs in presence of oxacillin by CLSI based serial dilution method.
The subject of experiment [26] is Staphylococcus aureus. Put plainly: Antibacterial activity against methicillin-resistant Staphylococcus aureus 114 assessed as reduction in bacterial growth incubated for 24 hrs in presence of oxacillin by CLSI based serial dilution method.
For experiment [27], the system named is Staphylococcus aureus. Briefly: Antibacterial activity against methicillin-resistant Staphylococcus aureus 124 assessed as reduction in bacterial growth incubated for 24 hrs in presence of oxacillin by CLSI based serial dilution method.
Experiment [28] relates to Staphylococcus aureus. Briefly: Antibacterial activity against methicillin-resistant Staphylococcus aureus 114 assessed as reduction in bacterial growth incubated for 24 hrs by CLSI based serial dilution method.
Experiment [29] concerns Staphylococcus aureus. Briefly: Antibacterial activity against Staphylococcus aureus ATCC 25923 assessed as reduction in bacterial growth incubated for 24 hrs by CLSI based serial dilution method.

Each structure is given as a SMILES string. Values after ≈ are worked out from the molar mass of the structure shown.

By MIC is commonly meant the lowest concentration that inhibits growth of the organism.

Regarding `C=C(C)[C@@H]1CC[C@]2(C(=O)O)CC[C@]3(C)[C@H](CC[C@@H]4[C@@]5(C)CCC(=O)C(C)(C)[C@@H]5[C@H](O)C[C@]43C)[C@@H]12`, the MIC with Escherichia coli [1] was above 1020 µg/mL; in the experiment with Klebsiella pneumoniae [2], above 1020 µg/mL; in the experiment with Escherichia coli [3], above 1020 µg/mL; in the experiment on Acinetobacter [4], above 1020 µg/mL; with Staphylococcus aureus [5], 16 µg/mL (≈ 34 µM); in the experiment on Staphylococcus aureus [6], 32 µg/mL (≈ 68 µM). The MIC in the experiment on Acinetobacter [8] was above 1020 µg/mL; with Acinetobacter [9], above 1020 µg/mL; with Staphylococcus aureus [11], 32 µg/mL (≈ 68 µM); in the experiment on Klebsiella pneumoniae [14], above 1020 µg/mL; in the experiment with Staphylococcus aureus [16] it was 16 µg/mL; with Staphylococcus aureus [17], 8 µg/mL. The MIC in the experiment with Staphylococcus aureus [18] is 8 µg/mL; in the experiment on Staphylococcus aureus [19] it was 32 µg/mL (≈ 68 µM); in the experiment on Acinetobacter [20], above 1020 µg/mL; with Pseudomonas aeruginosa it was above 1020 µg/mL; in the experiment with Enterococcus faecalis it was 32 µg/mL (≈ 68 µM); with Staphylococcus aureus [26], 16 µg/mL. Besides, the values for the MIC in the experiment with Staphylococcus aureus [27], in the experiment on Staphylococcus aureus [28] and with Staphylococcus aureus [29] were 32 µg/mL, 32 µg/mL (≈ 68 µM) and 16 µg/mL (≈ 34 µM), respectively. Besides, the “fractional inhibitory concentration index (FICI)” value with Staphylococcus aureus [7] was determined as 0.53; with Staphylococcus aureus [10], 0.75; with Staphylococcus aureus [12], 1; in the experiment with Staphylococcus aureus [22] it was 2; in the experiment on Staphylococcus aureus [24], 0.49. The FIC with Staphylococcus aureus [13] was found to be 0.5; in the experiment on Staphylococcus aureus [15] it was 0.5; in the experiment with Staphylococcus aureus [21], 1; in the experiment on Staphylococcus aureus [23], 0.5; with Staphylococcus aureus [25], 0.25.

Turning to `C[C@@H](O)[C@H]1C(=O)N2C(C(=O)O)=C(S[C@@H]3CN[C@H](C(=O)N(C)C)C3)[C@H](C)[C@H]12` [MEROPENEM], the MIC was found to be 0.008 µg/mL (≈ 0.0209 µM) in the experiment on Escherichia coli [1]; 0.008 µg/mL (≈ 0.0209 µM) in the experiment with Escherichia coli [3]; 64 µg/mL (≈ 167 µM) with Acinetobacter [4]; 128 µg/mL (≈ 334 µM) in the experiment on Acinetobacter [8]; 128 µg/mL (≈ 334 µM) with Acinetobacter [9]; 8 µg/mL (≈ 20.9 µM) in the experiment on Klebsiella pneumoniae [14]. The values for the MIC in the experiment with Acinetobacter [20] and in the experiment with Pseudomonas aeruginosa were 64 µg/mL (≈ 167 µM) and 0.12 µg/mL (≈ 0.313 µM), respectively.

`Cc1onc(-c2ccccc2)c1C(=O)N[C@@H]1C(=O)N2[C@@H]1SC(C)(C)[C@@H]2C(=O)O` [OXACILLIN]: the MIC in the experiment with Staphylococcus aureus [5] turned out to be 16 µg/mL (≈ 39.9 µM); with Staphylococcus aureus [6], 16 µg/mL (≈ 39.9 µM); in the experiment on Staphylococcus aureus [11], 0.12 µg/mL (≈ 0.299 µM); with Staphylococcus aureus [19] it was 16 µg/mL (≈ 39.9 µM); with Enterococcus faecalis it was 8 µg/mL (≈ 19.9 µM); with Staphylococcus aureus [28], 16 µg/mL (≈ 39.9 µM).
